# In patent publication US8236792B2, “Substituted pyrrolidine amides as modulators of the histamine H3 receptor” (Janssen Pharmaceutica NV, priority 2008, dated 2012):
# Biological target: human H3 receptor (Homo sapiens, UniProt Q9Y5N1)
# Test: H3 Receptor Binding (Human) Method 2, [125I]-iodoproxyfan competitive radioligand binding
# Parameters: expressed in transfected cells
# Settings: read-out: Human H3 Ki
# Experimental: SK-N-MC cells expressing the human H3 receptor were grown to confluence and tissue culture plates, washed with phosphate-buffered saline, and scraped into 50 mL tubes. After centrifugation, the supernatant was aspirated, and the pellets frozen and stored at −80° C. […] The homogenate was centrifuged at 25000×g for 25 min. […] Reactions were stopped by filtration through GF/B filter plates pre-soaked in 0.3% polyethylenimine and subsequently washed with Tris 50 mM, 5 mM EDTA buffer. Plates were dried for 1 h in a 55° C. oven. Scintillation fluid was added and the radioactivity was counted in a Packard TopCount. Non-specific binding to the H3 receptor was defined by radioactivity that was bound in the presence of 100 μM histamine.
# Compounds were tested in their free base or hydrochloride salt forms.
# Chain of human H3 receptor (Q9Y5N1 whole entry): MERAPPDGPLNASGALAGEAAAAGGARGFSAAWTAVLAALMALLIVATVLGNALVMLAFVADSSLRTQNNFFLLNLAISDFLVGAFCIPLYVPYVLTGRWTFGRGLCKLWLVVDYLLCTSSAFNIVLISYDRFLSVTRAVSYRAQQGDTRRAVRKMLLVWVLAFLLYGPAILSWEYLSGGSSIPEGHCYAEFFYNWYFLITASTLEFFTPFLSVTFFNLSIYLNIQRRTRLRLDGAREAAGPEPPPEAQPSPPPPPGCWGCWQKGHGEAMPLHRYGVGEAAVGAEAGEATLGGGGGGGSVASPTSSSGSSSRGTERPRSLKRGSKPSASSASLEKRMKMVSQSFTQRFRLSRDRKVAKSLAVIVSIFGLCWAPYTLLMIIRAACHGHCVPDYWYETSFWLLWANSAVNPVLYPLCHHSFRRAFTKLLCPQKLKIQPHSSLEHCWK
row,Structure (SMILES),Ki [nM]
1,"CC(C)(C)OC(=O)N1C[C@H](O)C[C@@H]1C(=O)N1CCCN(C2CCC2)CC1 [Example 8, (2R,4R)-2-(4-Cyclobutyl-[1,4]diazepane-1-carbonyl)-4-hydroxy-pyrrolidine-1-carboxylic acid tert-butyl Ester]",534
2,"Cc1cnc(O[C@H]2C[C@H](C(=O)N3CCCN(C4CCC4)CC3)N(C(=O)OC(C)(C)C)C2)cc1I [Example 52, (2R,4S)-2-(4-Cyclobutyl-[1,4]diazepane-1-carbonyl)-4-(4-iodo-5-methyl-pyridin-2-yloxy)-pyrrolidine-1-carboxylic acid tert-butyl ester]",8
3,"CC(C)(C)OC(=O)N1CC[C@@H](Oc2cccc(F)c2)[C@H]1C(=O)N1CCCN(C2CCC2)CC1 [Example 143, (2S,3R)-2-(4-Cyclobutyl-[1,4]diazepane-1-carbonyl)-3-(3-fluoro-phenoxy)-pyrrolidine-1-carboxylic acid tert-butyl ester]",845
4,"CC(=O)N1C[C@@H](Oc2ccc3c(c2)OCCO3)C[C@@H]1C(=O)N1CCCN(C2CCC2)CC1 [Example 136, (2R,4S)-1-[2-(4-Cyclobutyl-[1,4]diazepane-1-carbonyl)-4-(2,3-dihydro-benzo[1,4]dioxin-6-yloxy)-pyrrolidin-1-yl]-ethanone]",2
5,"CN(C)[C@@H]1CCN(C(=O)[C@H]2C[C@H](Oc3cccc(F)c3)CN2C(=O)OC(C)(C)C)C1 [Example 37, (2R,4S)-2-((3R)-3-Dimethylamino-pyrrolidine-1-carbonyl)-4-(3-fluoro-phenoxy)-pyrrolidine-1-carboxylic acid tert-butyl ester]",> 10000
6,"O=C([C@@H]1C[C@@H](Cc2ccccc2)CN1)N1CCCN(C2CCC2)CC1 [Example 177, (2S,4R)-(4-Benzyl-pyrrolidin-2-yl)-(4-cyclobutyl-[1,4]diazepan-1-yl)-methanone]",263
7,"CC(=O)N1C[C@@H](Oc2ccccn2)C[C@@H]1C(=O)N1CCCN(C2CCC2)CC1 [Example 132, (2R,4S)-1-[2-(4-Cyclobutyl-[1,4]diazepane-1-carbonyl)-4-(Pyridin-2-yloxy)-pyrrolidin-1-yl]-ethanone]",3

# Continued by falling Ki, values first:
row,Ki [nM],Structure (SMILES)
1,39,"CC(C)(C)OC(=O)N1C[C@H](Cc2ccccc2)C[C@H]1C(=O)N1CCCN(C2CCC2)CC1 [Example 173, (2S,4R)-4-Benzyl-2-(4-cyclobutyl-[1,4]diazepane-1-carbonyl)-pyrrolidine-1-carboxylic acid tert-butyl ester]"
2,20,"CC(C)(C)OC(=O)N1C[C@H](Cc2ccsc2)C[C@H]1C(=O)N1CCCN(C2CCC2)CC1 [Example 176, (2S,4R)-2-(4-Cyclobutyl-[1,4]diazepane-1-carbonyl)-4-thiophen-3-ylmethyl-pyrrolidine-1-carboxylic acid tert-butyl ester]"
3,7,"CSc1ccc(O[C@H]2C[C@H](C(=O)N3CCCN(C4CCC4)CC3)N(C(=O)OC(C)(C)C)C2)cc1 [Example 23, (2R,4S)-2-(4-Cyclobutyl-[1,4]diazepane-1-carbonyl)-4-(4-methylsulfanyl-phenoxy)-pyrrolidine-1-carboxylic acid tert-butyl ester]"
4,7,"CC(C)(C)OC(=O)N1C[C@@H](Oc2ccc(C(F)(F)F)cc2)C[C@@H]1C(=O)N1CCCN(C2CCC2)CC1 [Example 28, (2R,4S)-2-(4-Cyclobutyl-[1,4]diazepane-1-carbonyl)-4-(4-trifluoromethyl-phenoxy)-pyrrolidine-1-carboxylic acid tert-butyl ester]"
5,3,"CC(C)(C)OC(=O)N1C[C@@H](Oc2ccc(C#N)cc2)C[C@@H]1C(=O)N1CCCN(C2CCCC2)CC1 [Example 36, (2R,4S)-4-(4-Cyano-phenoxy)-2-(4-cyclopentyl-[1,4]diazepane-1-carbonyl)-pyrrolidine-1-carboxylic acid tert-butyl ester]"
6,2,"Cc1cnc(O[C@@H]2CN[C@@H](C(=O)N3CCCN(C4CCC4)CC3)C2)cc1I [Example 100, (2R,4S)-2-(4-Cyclobutyl-[1,4]diazepane-1-carbonyl)-4-(4-iodo-5-methyl-pyridin-2-yloxy)-pyrrolidine]"
